Data taken from ChEMBL document CHEMBL4385604, “Identification of Pyrrolo[2,3- d]pyrimidine-Based Derivatives as Potent and Orally Effective Fms-like Tyrosine Receptor Kinase 3 (FLT3) Inhibitors for Treating Acute Myelogenous Leukemia” (J Med Chem, 2019).

Columns and labels:
MV4-11 [1] = experiment: Antitumour activity against human MV4-11 cells xenografted in NOD/SCID mouse assessed as tumour growth inhibition at 3 mg/kg, po qd for 14 days measured every two days during compound dosing by caliper method relative to control; type: functional; settings: MV4-11, po, read-out: TGI
MV4-11 [2] = experiment: Inhibition of MAPK in human MV4-11 cells assessed as ratio of phosphorylated ERK to beta-actin level at 30 nM after 2 hrs by Western blot analysis relative to control; type: cell-based
[3] = molecular target: T1, Receptor-type tyrosine-protein kinase FLT3 (Homo sapiens, UniProt P36888)
T1 sequence (P36888 whole entry): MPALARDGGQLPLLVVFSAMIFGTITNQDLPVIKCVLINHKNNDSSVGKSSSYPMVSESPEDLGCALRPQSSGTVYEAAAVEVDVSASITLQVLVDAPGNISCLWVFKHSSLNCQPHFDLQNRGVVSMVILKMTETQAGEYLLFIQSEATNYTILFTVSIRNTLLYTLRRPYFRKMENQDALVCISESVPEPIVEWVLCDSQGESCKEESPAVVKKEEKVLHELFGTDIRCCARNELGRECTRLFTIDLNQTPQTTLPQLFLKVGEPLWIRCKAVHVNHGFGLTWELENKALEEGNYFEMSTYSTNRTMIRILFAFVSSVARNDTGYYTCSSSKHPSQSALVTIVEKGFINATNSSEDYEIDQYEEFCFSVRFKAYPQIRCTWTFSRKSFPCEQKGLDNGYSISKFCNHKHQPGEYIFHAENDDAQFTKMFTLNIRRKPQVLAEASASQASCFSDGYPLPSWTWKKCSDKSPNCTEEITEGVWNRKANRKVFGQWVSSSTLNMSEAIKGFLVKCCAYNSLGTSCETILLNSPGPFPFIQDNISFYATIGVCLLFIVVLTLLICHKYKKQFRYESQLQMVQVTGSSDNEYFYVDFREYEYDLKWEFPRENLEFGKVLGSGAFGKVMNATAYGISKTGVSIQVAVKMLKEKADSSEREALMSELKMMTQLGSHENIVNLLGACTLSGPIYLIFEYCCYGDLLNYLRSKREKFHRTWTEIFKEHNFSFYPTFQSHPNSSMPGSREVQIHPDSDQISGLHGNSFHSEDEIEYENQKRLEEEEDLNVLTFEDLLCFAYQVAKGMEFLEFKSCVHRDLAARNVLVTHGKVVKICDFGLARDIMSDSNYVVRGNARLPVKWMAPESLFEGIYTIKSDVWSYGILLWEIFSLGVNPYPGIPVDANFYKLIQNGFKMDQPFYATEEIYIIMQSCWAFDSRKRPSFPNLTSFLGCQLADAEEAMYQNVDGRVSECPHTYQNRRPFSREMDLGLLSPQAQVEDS

MOLM-13 [4] = experiment: Induction of apoptosis in human MOLM13 cells assessed as early apoptotic cells at 10 uM after 48 hrs by Annexin V/propidium iodide staining based flow cytometry (reference value: 5.97%); type: functional
MOLM-13 [5] = experiment: Induction of apoptosis in human MOLM13 cells assessed as necrotic cells at 10 nM after 48 hrs by Annexin V/propidium iodide staining based flow cytometry (reference value: 0.29%); type: functional
[6] = Tmax in Sprague-Dawley rat at 5 mg/kg, po by LC-MS/MS analysis; type: ADME, organism-based; settings: in vivo
MOLM-13 [7] = experiment: Cell cycle arrest in human MOLM13 cells assessed as accumulation at S phase at 30 nM after 24 hrs by propidium iodide staining-based flow cytometric analysis (reference value: 41.95%); type: functional
MOLM-13 [8] = experiment: Cell cycle arrest in human MOLM13 cells assessed as accumulation at S phase at 3 nM after 24 hrs by propidium iodide staining-based flow cytometric analysis (reference value: 41.95%); type: functional
MOLM-13 [9] = experiment: Cell cycle arrest in human MOLM13 cells assessed as accumulation at G2/M phase at 1 nM after 24 hrs by propidium iodide staining-based flow cytometric analysis (reference value: 13.52%); type: functional
[10] = Oral bioavailability in Sprague-Dawley rat at 5 mg/kg by LC-MS/MS analysis; type: ADME, organism-based; settings: in vivo
MOLM-13 [11] = experiment: Induction of apoptosis in human MOLM13 cells assessed as early apoptotic cells at 10 nM after 48 hrs by Annexin V/propidium iodide staining based flow cytometry (reference value: 5.97%); type: functional
MV4-11 [12] = experiment: Cell cycle arrest in human MV4-11 cells assessed as accumulation at G2/M phase at 3 nM after 24 hrs by propidium iodide staining-based flow cytometric analysis (reference value: 21.12%); type: functional
MOLM-13 [13] = experiment: Cell cycle arrest in human MOLM13 cells assessed as accumulation at G2/M phase at 10 nM after 24 hrs by propidium iodide staining-based flow cytometric analysis (reference value: 13.52%); type: functional
MV4-11 [14] = experiment: Cell cycle arrest in human MV4-11 cells assessed as accumulation at G0/G1 phase at 30 nM after 24 hrs by propidium iodide staining-based flow cytometric analysis (reference value: 48.76%); type: functional
[15] = molecular target: Receptor-type tyrosine-protein kinase FLT3 (Homo sapiens, UniProt P36888, K663Q); experiment: Binding affinity to human partial length FLT3 K663Q mutant (V592 to Y969 residues) expressed in Escherichia coli after 1 hr by qPCR analysis
[16] = system: Receptor-type tyrosine-protein kinase FLT3 (Homo sapiens), P36888 [UNDEFINED MUTATION]; experiment: Inhibition of FLT3 ITD mutant in human MOLM13 cells assessed as ratio of phosphorylated STAT5 to beta-actin level at 100 nM after 2 hrs by Western blot analysis relative to control; type: cell-based
MV4-11 [17] = experiment: Induction of apoptosis in human MV4-11 cells assessed as necrotic cells at 10 uM after 48 hrs by Annexin V/propidium iodide staining based flow cytometry (reference value: 0.06%); type: functional
RS4-11 = experiment: Antiproliferative activity against human RS4:11 cells harboring wild-type FLT3 measured after 72 hrs by MTT assay; type: functional, cell-based; settings: RS4-11, 72 h
MOLM-13 [18] = experiment: Cell cycle arrest in human MOLM13 cells assessed as accumulation at G2/M phase at 3 nM after 24 hrs by propidium iodide staining-based flow cytometric analysis (reference value: 13.52%); type: functional

C=CCn1cc(-c2ccc(NC(=O)Nc3cc(C(C)(C)C)on3)cc2)c2c(N)ncnc21
inhibition in vivo at 3 mg/kg (MV4-11 [1]): 98.2% | fold change (FC) (MV4-11 [2]): 0 | IC50 [3]: 7 nM | Activity (MOLM-13 [4]): 0.61% | Activity (MOLM-13 [5]): 0.12% | Tmax [6]: 45 min | Activity (MOLM-13 [7]): 2.84% | Activity (MOLM-13 [8]): 11.83% | Activity (MOLM-13 [9]): 11% | bioavailability [10]: 59.5% | Activity (MOLM-13 [11]): 15.5% | Activity (MV4-11 [12]): 4.08% | Activity (MOLM-13 [13]): 2.37% | Activity (MV4-11 [14]): 96.25% | Kd [15]: 2.48 nM | fold change (FC) [16]: 0 | Activity (MV4-11 [17]): 2.13% | IC50 (RS4-11): > 1000 nM | Activity (MOLM-13 [18]): 4.55%
